In patent publication US4510307A, “6-Quinazolinesulfonyl derivatives and process for preparation thereof” (Asahi Kasei Kogyo Kabushiki Kaisha, priority 1980, dated 1985):
Read-outs that look alike come from different tables or passages of the source.

Assays:
[1] = test system: hog cerebral cortex calmodulin or calcium-dependent cyclic nucleotide PDE; test: PDE inhibition, calmodulin or calcium-dependent cyclic nucleotide PDE of hog cerebral cortex; assay type: biochemical
From the text: (§1) More specifically, from the results of the experiment using an enzyme specimen in accordance with the reports [Mol. Pharmacol., 15, 49 (1979) and Biochem. Biophys. […] The 6-quinazolinesulfonyl derivatives and the pharmaceutically acceptable acid addition salts have inhibited the decomposition due to the enzyme specimens of substrate c-AMP and guanosine-3',5'-monophosphate (abbreviated "c-GMP"). This means that the compounds of this invention can inhibit the decomposition of the c-AMP and maintain the c-AMP in tissue at a high concentration. In other words, the compounds of this invention are effective for the improvement and medical treatment of a disease accompanied by reduction in the c-AMP and a disease accompanied by infiltration of calcium into tissue, for example, the contraction and convulsion of vascular smooth muscle.
(§2) As the enzyme specimens, human blood platelet and hog cerebral cortex were partially purified in accordance with reports [Mol. Pharmacol., 15, 49 (1979) and Biochem. Biophys. Res. Comun., 84, 277 (1978)]. The effect of the 6-quinazolinesulfonyl derivatives and their pharmaceutically acceptable acid addition salts of this invention on the c-AMP-decomposing PDE and the calmodulin or calcium-dependent cyclic nucleotide PDE was examined under the conditions in accordance with the above described reports. […] The activity of the compounds of this invention is expressed by the concentration which is required to inhibit 50% of the decomposition of the c-AMP-decomposing PDE, i.e., I50 by μM.
*^2 The enzyme activity was measured by using calmodulin and Ca^+
dependent specimens. The nonactivation was measured in the presence of
0.2 mM of EGTA, while the activation was measured in the presence of 0.2
mM of CaCl2 and 8 units of calmodulin.

[2] = Acute toxicity, intravenous administration in mice; conditions: mouse, in vivo, male ddY-strain mice
Method: Furthermore, when the 6-quinazolinesulfonyl derivatives and the pharmaceutically acceptable acid addition salts of this invention are intravenously and arterially administered for the above described purposes, any remarkable toxicity cannot be observed.
The acute toxicity of the 6-quinazolinesulfonyl derivatives and their pharmaceutically acceptable acid addition salts was measured by giving male ddY-strain mice an intravenous administration.

[3] = test system: human blood platelet cAMP PDE; test: PDE inhibition, c-AMP-decomposing PDE of human blood platelet; assay type: biochemical; conditions: human blood platelet cAMP PDE specimen; read-out: PDE Inhibition I50, Human Blood Platelet (PII)
From the text: as §1, §2
*^1 The human blood platelet cAMP PDE specimen was employed.

femoral artery = test: Effect on blood flow volume of femoral artery of dog; assay type: in vivo, dog of mixed breed; conditions: Canis lupus familiaris; 1 mg/Kg intravenous; anesthetized dog; read-out: Increased Blood Flow Volume in Femoral Artery
Method: (§3) The effect of the 6-quinazolinesulfonyl derivatives and the pharmaceutically acceptable acid addition salts of this invention on the vasodilation of the femoral and vertebral arteries can be measured by anesthetizing a dog of mixed breed weighing 8 to 15 Kg by an intravenous administration of 35 mg/Kg of pentbarbital, providing an acute type probe (a product of Nippon Koden K.K., Japan) with the femoral and vertebral arteries, administering the 6-quinazolinesulfonyl derivatives and the pharmaceutically acceptable acid addition salts to the femoral vein through a polyethylene tube inserted into the femoral vein side chain and measuring the blood flow volume with an electromagnetic flowmeter (a product of Nippon Koden K.K., Japan, "MF-27"). For example, when 1 mg/Kg of 1-[4-(N-methyl-N-cyclohexylamino)-6-quinazolinesulfonyl]-4-(2-ethoxy-2- phenylethyl)piperazine was intravenously administered, the increased blood flow volume in the femoral artery was 33% and the increased blood flow volume in the vertebral artery was 59%.
(§4) The effect on the vasodilatation of the femoral and vertebral arteries was measured by anesthetizing a dog of mixed breed weighing 8 to 15 Kg by an intravenous administration of 35 mg/Kg of pentbarbital, providing an acute type probe (a product of Nippon Koden K.K., Japan) with the femoral and vertebral arteries, administering the 6-quinazolinesulfonyl derivatives and their pharmaceutically acceptable acid addition salts to the femoral vein through a polyethylene tube inserted into the femoral vein side chain and measuring the blood flow volume with an electromagnetic blood flowmeter (a product of Nippon Koden K.K., Japan, "MF-27").

mesenteric artery = test: Relaxation of Mesenteric Artery (isolated rabbit mesenteric artery contracted with KCl); conditions: Oryctolagus cuniculus, concentration for 50% relaxation, KCl 15~20 mM contraction, read-out: Relaxation of Mesenteric Artery ED50
Method: When, for example, 1-[4-(N-methyl-N-cyclohexylamino)-6-quinazolinesulfonyl]-4-(2-ethoxy-2-phenylethyl)piperazine was added and a complete relaxation was designated 100%, the concentration which could bring about a relaxation of 50%, i.e., ED50 was 0.8 μM.
After a home bred rabbit of a Japanese species weighing about 3 Kg was subjected to bloodletting, resulting in death and then to abdominal incision, the mesenteric artery was taken out, cut into helicoids of 2 mm×25 mm and suspended in a 20 ml organ bath filled with a Krebs-Henseleit solution into which a mixed gas of 95% by volume of O2 and 5% by volume of CO2 was introduced and one end of the artery was connected with an isometric transducer. When a load of 1.5 g was applied to the artery, the contraction and the relaxation of the artery was recorded as a weight on the transducer (a product of Nippon Koden K.K., Japan, "FD Pickup TB-912T"). The relaxation of the mesenteric artery was observed by adding the 6-quinazolinesulfonyl derivatives and their pharmaceutically acceptable acid addition salts to the mesenteric artery at the condition of about one half of the maxinum contraction with KCl at a KCl concentrantion of 15~20 mM. When the complete relaxation of the mesenteric artery was designated 100%, the concentration of the 6-quinazolinesulfonyl derivatives and their pharmaceutically acceptable acid addition salts which brought about a relaxation of 50% is shown in Table 6.

vertebral artery = test: Effect on blood flow volume of vertebral artery of dog; assay type: in vivo, dog of mixed breed; conditions: Canis lupus familiaris; 1 mg/Kg intravenous; anesthetized dog; read-out: Increased Blood Flow Volume in Vertebral Artery
Method: as §3, §4

[4] = activated: 0.2 mM CaCl2 and 8 units of calmodulin, read-out: PDE Inhibition I50, Hog Cerebral Cortex (PII), Activated
[5] = non-activated: presence of 0.2 mM EGTA, read-out: PDE Inhibition I50, Hog Cerebral Cortex (PII), Non-activated

SMILES | IC50 [1, 4] | IC50 [1, 5] | LD50 [2] | IC50 [3] | change in vivo at 1 mg/kg (femoral artery) | EC50 (mesenteric artery) | change in vivo at 1 mg/kg (vertebral artery) | PDE Inhibition I50, Hog Cerebral Cortex (PII), Non-activated ([1]; non-activated: presence of 0.2 mM EGTA)
CCOC(CN1CCN(S(=O)(=O)c2ccc3ncnc(N4CCCCC4)c3c2)CC1)c1ccccc1 (centres unmarked) [Compound (6), 1-(4-piperidino-6-quinazolinesulfonyl)-4-(2-ethoxy-2-phenylethyl)-piperazine] | 31 µM | 15 µM | 108 mg/kg | 850 µM | 31% | 1.7 µM | 51% | –
O=S(=O)(c1ccc2ncnc(N3CCCCC3)c2c1)N1CCN(CC=Cc2ccccc2)CC1 [Compound (9), 1-(4-piperidino-6-quinazolinesulfonyl)-4-cinnamylpiperazine] | 20 µM | – | 133 mg/kg | 700 µM | 24% | 3 µM | 42% | not inhibited
CCOC(CN1CCN(S(=O)(=O)c2ccc3ncnc(N(C)C4CCCCC4)c3c2)CC1)c1ccccc1 (centres unmarked) [Compound (19), 1-[4-(N-methyl-N-cyclohexylamino)-6-quinazolinesulfonyl]-4-(2-ethoxy-2-phenylethyl)piperazine] | 4 µM | 4 µM | 63 mg/kg | 750 µM | 33% | 0.8 µM | 59% | –
CCOC(CN1CCN(S(=O)(=O)c2ccc3ncnc(N(C)c4ccccc4)c3c2)CC1)c1ccccc1 (centres unmarked) [Compound (23), 1-[4-(N-methylanilino)-6-quinazolinesulfonyl]-4-(2-ethoxy-2-phenylethyl)-piperazine] | 11 µM | 24 µM | 98 mg/kg | 900 µM | 25% | 2.2 µM | 38% | –
CCOC(CN1CCN(S(=O)(=O)c2ccc3ncnc(N(C)Cc4ccccc4)c3c2)CC1)c1ccccc1 (centres unmarked) [Compound (25), 1-[4-(N-methyl-N-benzylamino)-6-quinazolinesulfonyl]-4-(2-ethoxy-2-phenylethyl)piperazine] | 7 µM | 7 µM | 72 mg/kg | 850 µM | 36% | 0.8 µM | 48% | –
NCCCCNS(=O)(=O)c1ccc2ncnc(N3CCCCC3)c2c1 [Compound (31), N-(4-aminobutyl)-4-piperidino-6-quinazolinesulfonamide] | 75 µM | 88 µM | 45 mg/kg | 300 µM | 28% | 21 µM | 48% | –
NCCCCCCNS(=O)(=O)c1ccc2ncnc(N3CCCCC3)c2c1 [Compound (32), N-(6-aminohexyl)-4-piperidino-6-quinazolinesulfonamide] | 111 µM | 94 µM | 95 mg/kg | 520 µM | 21% | 24 µM | 36% | –
CCCCN(CCCC)c1ncnc2ccc(S(=O)(=O)NCCCCN)cc12 [Compound (37), N-(4-aminobutyl)-4-dibutylamino-6-quinazolinesulfonamide] | 44 µM | 109 µM | 103 mg/kg | 250 µM | 24% | 8 µM | 41% | –
